Assay results taken from patent US8729132B2, “Agomelatine hydrobromide hydrate and preparation thereof” (Les Laboratoires Servier, priority 2010, dated 2014).
Counter-ions that a name gives are not always drawn. One block for each compound: values may come before it.

Key:
Assay type in all cases: physicochemical
[1] = Water solubility by HPLC, external standard method
Description: Using external standard method, the product of example 1 was tested with HPLC, compared with agomelatine crystalline form II.

[2] = Stability test, incubator at 40° C. for 30 days, HPLC
Description: Chromatographic conditions: C18 column; mobile phase: 10 mmol/L phosphate buffer (adjusted to pH 7.0 with NaOH): acetonitrile=2:7 (v/v); column temperature: 40° C.; detection wavelength: 220 nm; internal standard method was used on the products of examples 1 and 2.
Solutions of the products at 1 mg/mL were prepared with the mobile phase. 10 μL of each solution was injected into the liquid chromatograph system and chromatograms were recorded. The results of the purity are shown in examples 1 and 2.
The product of example 1 was placed in an incubator at 40° C. for 30 days to determine its stability with HPLC.

[3] = Stability test per Chinese Pharmacopoeia (affecting factors, accelerated, long-term); settings: for Water: initial 5.25%; for Br: initial 23.21%; for Purity of agomelatine hydrobromide hydrate: initial value 99.89%
Description: The method for stability test as described in Chinese Pharmacopoeia was used in this test. • 1) Affecting factors test (in open container for 10 days): high temperature (60° C.), photostability under strong light ([…]), high humidity (92.5% RH at 25° C.) • 2) Accelerated test (in closed container for 6 months): at 40° C., humidity: 75% RH • 3) Long-term test (in closed container for 9 months): at 25° C., humidity: 60% RH

[4] = Accelerated test: closed container, 6 months, 40° C., 75% RH
[5] = Affecting factors: high humidity (92.5% RH at 25° C.), open container, 10 days
[6] = Affecting factors: high temperature (60° C.), open container, 10 days
[7] = Affecting factors: strong light (45001x), open container, 10 days
[8] = Long-term test: closed container, 9 months, 25° C., 60% RH

- Agomelatine content ([1]; In 0.1N HCl, hydrobromide hydrate): 0.37 mg/mL
- Agomelatine content ([1]; In pH 7.0 buffer, hydrobromide hydrate): 0.31 mg/mL
- Agomelatine content ([1]; In water, hydrobromide hydrate): 0.33 mg/mL
- stability with HPLC (purity) ([2]; Day 0): 99.7%
- stability with HPLC (purity) ([2]; Day 5): 99.7%
- stability with HPLC (purity) ([2]; Day 10): 99.6%
- stability with HPLC (purity) ([2]; Day 30): 99.6%
- Water [3, 4]: 5.41%
- Br [3, 4]: 23.07%
- Purity of agomelatine hydrobromide hydrate [3, 4]: 99.83%
- Water [3, 5]: 5.45%
- Br [3, 5]: 23.11%
- Purity of agomelatine hydrobromide hydrate [3, 5]: 99.83%
- Water [3, 6]: 5.18%
- Br [3, 6]: 21.95%
- Purity of agomelatine hydrobromide hydrate [3, 6]: 99.87%
- Water [3, 7]: 5.22%
- Br [3, 7]: 22.61%
- Purity of agomelatine hydrobromide hydrate [3, 7]: 99.71%
- Water [3, 8]: 5.18%
- Br [3, 8]: 22.52%
- Purity of agomelatine hydrobromide hydrate [3, 8]: 99.84%
- stability (overall conclusion) ([3]; affecting factors, accelerated and long-term tests): stable
Compound: COc1ccc2cccc(CCNC(C)=O)c2c1 [AG•HBr•H2O, agomelatine hydrobromide hydrate]
- solubility compared with agomelatine per se ([1]; in water, 0.1N HCl or pH 7.0 buffer): better solubility than agomelatine per se

- Agomelatine content ([1]; In 0.1N HCl): 0.30 mg/mL
- Agomelatine content ([1]; In pH 7.0 buffer): 0.25 mg/mL
- Agomelatine content ([1]; In water): 0.26 mg/mL
Compound: COc1ccc2cccc(CCNC(C)=O)c2c1 [AG crystalline form II, N-[2-(7-methoxy-1-naphthyl)ethyl]-acetamide, reference compound]
